From ChEMBL document CHEMBL1126889, “Dopamine receptor modulation by a highly rigid spiro bicyclic peptidomimetic of Pro-Leu-Gly-NH2” (J Med Chem, 1993) come the findings set out here.

Residues, ends and D or L forms follow the SMILES beside them.

In assay [1] the target is T1, Dopamine receptor (Bos taurus) (UniProt Q95136+P20288). Kind of assay: Tested for ability to enhance the binding of the dopamine receptor agonist [3H]ADTN to striatal dopamine receptors in vitro. Format: protein assay.
Assay [2] has as its target T1, Dopamine receptor (Bos taurus). Description: Tested for ability to enhance the binding of the dopamine receptor agonist [3H]-ADTN to striatal dopamine receptors in vitro at 10 e-6 M. Format: protein assay.

Regarding `CC(C)C[C@H](NC(=O)[C@@H]1CCCN1)C(=O)NCC(N)=O` (H-Pro-Leu-Gly-NH2), the Binding in assay [1] worked out at 26%. For `NC(=O)[C@H]1CS[C@@H]2C[C@]3(CCCN3C(=O)C3CCCN3)C(=O)N12` (some centres not stated), in assay [2], the Binding worked out at 40%.
